Experimental data reported in BindingDB's records for patent US20250313563 (The Broad Institute, 2025).
Several values for one entry are separate records, joined by “and”; a condition that tells them apart may be missing. Identical values can stand only once.

Columns and labels:
[1] = biological target: Glycogen synthase kinase-3 alpha (Homo sapiens, UniProt P49840); test: TR-FRET Assay
Outline: (§1)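 30 min preinc w/ cpd in assay buffer → kinase rxn → EDTA quench → add detection mix (40 nM SA-d2, 2 nM Tb-pSer641 Ab) → TR-FRET read.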

[2] = biological target: Glycogen synthase kinase-3 beta (Homo sapiens, UniProt P49841); test: TR-FRET Assay
Outline: as §1

Chain of Glycogen synthase kinase-3 beta (P49841 whole entry): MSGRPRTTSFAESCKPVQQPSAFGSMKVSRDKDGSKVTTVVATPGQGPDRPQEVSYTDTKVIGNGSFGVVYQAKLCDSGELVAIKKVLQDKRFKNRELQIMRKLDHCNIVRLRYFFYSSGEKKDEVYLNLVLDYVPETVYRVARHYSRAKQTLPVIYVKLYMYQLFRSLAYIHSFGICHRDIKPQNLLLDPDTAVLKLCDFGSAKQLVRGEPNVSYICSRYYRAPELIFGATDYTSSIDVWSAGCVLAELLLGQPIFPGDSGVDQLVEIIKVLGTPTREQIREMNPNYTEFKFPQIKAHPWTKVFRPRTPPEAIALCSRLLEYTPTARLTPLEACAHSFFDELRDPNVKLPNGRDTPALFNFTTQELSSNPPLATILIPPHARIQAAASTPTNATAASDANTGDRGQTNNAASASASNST
Chain of Glycogen synthase kinase-3 alpha (P49840 whole entry): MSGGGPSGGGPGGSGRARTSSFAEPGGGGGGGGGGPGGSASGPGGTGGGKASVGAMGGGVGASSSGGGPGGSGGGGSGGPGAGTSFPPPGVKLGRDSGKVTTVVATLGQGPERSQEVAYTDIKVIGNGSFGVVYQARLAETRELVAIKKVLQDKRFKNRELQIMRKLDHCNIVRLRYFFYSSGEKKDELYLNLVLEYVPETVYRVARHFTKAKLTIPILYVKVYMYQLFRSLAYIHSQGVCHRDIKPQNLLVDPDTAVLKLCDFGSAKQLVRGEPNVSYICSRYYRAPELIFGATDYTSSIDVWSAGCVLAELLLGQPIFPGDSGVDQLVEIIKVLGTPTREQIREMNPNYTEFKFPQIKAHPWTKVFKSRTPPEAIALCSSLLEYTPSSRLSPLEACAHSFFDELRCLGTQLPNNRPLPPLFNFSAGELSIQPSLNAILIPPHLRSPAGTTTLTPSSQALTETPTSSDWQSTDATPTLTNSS

Row | IC50 [1] | IC50 [2] | Structure (SMILES)
1 | < 100 nM | < 100 nM | CCC1(c2cccc(N(C)c3nccc(OC)n3)c2)C2=CN=NC2NC2=C1C(=O)CC(C)(C)C2 (stereo not drawn) [US20250313563, Compound 929387]
2 | < 100 nM and 100 to 1000 nM | 100 to 1000 nM | CC[C@]1(c2cccc(C(F)(F)F)c2)C2=C(N=NC2)NC2=C1C(=O)N(Cc1ccccc1)C2 [US20250313563, Compound 929388]
3 | 1000 to 5000 nM | > 5000 nM | CC[C@@]1(c2cccc(C(F)(F)F)c2)C2=C(N=NC2)NC2=C1C(=O)N(Cc1ccccc1)C2 [US20250313563, Compound 929389]
4 | < 100 nM | < 100 nM | CCn1nccc1-c1cccc(C2(CC)C3=CN=NC3NC3=C2C(=O)CC(C)(C)C3)c1 (stereo not drawn) [US20250313563, Compound 929398]
5 | < 100 nM | < 100 nM | CCC1(c2cccc(-c3ccnn3C(C)C)c2)C2=CN=NC2NC2=C1C(=O)CC(C)(C)C2 (stereo not drawn) [US20250313563, Compound 929399]
6 | < 100 nM | < 100 nM | CCCn1nccc1-c1cccc(C2(CC)C3=CN=NC3NC3=C2C(=O)CC(C)(C)C3)c1 (stereo not drawn) [US20250313563, Compound 929400]
7 | < 100 nM | < 100 nM | CCC1(c2cccc(-c3ccnn3CCC(C)C)c2)C2=CN=NC2NC2=C1C(=O)CC(C)(C)C2 (stereo not drawn) [US20250313563, Compound 929401]
8 | < 100 nM | 100 to 1000 nM | CCC1(c2cccc(-c3cc(C)nn3C)c2)C2=CN=NC2NC2=C1C(=O)CC(C)(C)C2 (stereo not drawn) [US20250313563, Compound 929402]
9 | > 5000 nM | > 5000 nM | CC1(C)CC(=O)C2=C(C1)NC1=C(CN=N1)C21CN(Cc2ccccc2)C1 [US20250313563, Compound 929436]
10 | < 100 nM | < 100 nM and 100 to 1000 nM | CC1(C)CC(=O)C2=C(C1)NC1=C(CN=N1)C21CCN(S(=O)(=O)Cc2ccccc2)CC1 [US20250313563, Compound 929437]
11 | > 5000 nM | > 5000 nM | CC1(C)CC(=O)C2=C(C1)NC1=C(CN=N1)C21CN(Cc2ccccn2)C1 [US20250313563, Compound 929438]
12 | > 5000 nM | > 5000 nM | Cn1cc(CN2CC3(C2)C2=C(N=NC2)NC2=C3C(=O)CC(C)(C)C2)cn1 [US20250313563, Compound 929439]
13 | < 100 nM | < 100 nM | CC1(C)CC(=O)C2=C(C1)NC1=C(CN=N1)C21CN(S(=O)(=O)CC2CC2)C1 [US20250313563, Compound 929440]
14 | > 5000 nM | > 5000 nM | CC1(C)CC(=O)C2=C(C1)NC1=C(CN=N1)C21CN(CCc2ccccc2)C1 [US20250313563, Compound 929441]
15 | < 100 nM | 100 to 1000 nM | CC[C@@]1(c2cccc(N(C)C(=O)c3ccn(C)n3)c2)C2=CN=NC2NC2=C1C(=O)CC(C)(C)C2 (stereo partly drawn) [US20250313563, Compound 929442]
16 | > 5000 nM | > 5000 nM | CC[C@]1(c2cccc(-c3ccnnc3)c2)C2=CN=NC2NC2=C1C(=O)CC(C)(C)C2 (stereo partly drawn) [US20250313563, Compound 929443]
17 | < 100 nM | < 100 nM | CC[C@]1(c2cccc(N(C)c3ccnc(F)c3)c2)C2=CN=NC2NC2=C1C(=O)CC(C)(C)C2 (stereo partly drawn) [US20250313563, Compound 929444]
18 | 1000 to 5000 nM | > 5000 nM | CCc1cc(-c2cccc(C3(CC)C4=CN=NC4NC4=C3C(=O)CC(C)(C)C4)c2)cc(CC)n1 (stereo not drawn) [US20250313563, Compound 929445]
19 | 1000 to 5000 nM | 1000 to 5000 nM | CC1(C)CC(=O)C2=C(C1)NC1=C(CN=N1)C21CN(C2CCCCC2)C1 [US20250313563, Compound 929446]
20 | > 5000 nM | > 5000 nM | CCN1CC2(C1)C1=C(N=NC1)NC1=C2C(=O)CC(C)(C)C1 [US20250313563, Compound 929448]

Row | IC50 [1] | IC50 [2] | Structure (SMILES)
21 | 1000 to 5000 nM | 1000 to 5000 nM | CCC1(c2cccc(N3CCc4cnccc4C3)c2)C2=CN=NC2NC2=C1C(=O)CC(C)(C)C2 (stereo not drawn) [US20250313563, Compound 929449]
22 | < 100 nM | 100 to 1000 nM | CC[C@]1(c2cc(N(C)C(C)=O)ccc2F)C2=CN=NC2NC2=C1C(=O)CC(C)(C)C2 (stereo partly drawn) [US20250313563, Compound 929450]
23 | > 5000 nM | > 5000 nM | CC[C@]1(c2cc(N(C)C(C)=O)ccc2F)C2=C(CC(C)(C)CC2=O)NC2N=NC(C)=C21 (stereo partly drawn) [US20250313563, Compound 929451]
24 | 1000 to 5000 nM | > 5000 nM | CCCS(=O)(=O)c1cccc([C@]2(CC)C3=CN=NC3NC3=C2C(=O)CC(C)(C)C3)c1 (stereo partly drawn) [US20250313563, Compound 929452]
25 | 1000 to 5000 nM | > 5000 nM | CC[C@@]1(c2cccc(N(C)c3ccnc(F)c3)c2)C2=CN=NC2NC2=C1C(=O)CC(C)(C)C2 (stereo partly drawn) [US20250313563, Compound 929453]
26 | < 100 nM and 100 to 1000 nM | < 100 nM and 1000 to 5000 nM | CC[C@@]1(c2cccc(-c3ccnnc3)c2)C2=CN=NC2NC2=C1C(=O)CC(C)(C)C2 (stereo partly drawn) [US20250313563, Compound 929454]
27 | > 5000 nM | > 5000 nM | CC[C@]1(c2cccc(N(C)C(=O)c3ccn(C)n3)c2)C2=CN=NC2NC2=C1C(=O)CC(C)(C)C2 (stereo partly drawn) [US20250313563, Compound 929455]
28 | > 5000 nM | > 5000 nM | CC[C@@]1(c2cccc(C(F)(F)F)c2)C2=CN=NC2NC2=C1C(=O)N(c1ccccc1)CC2 (stereo partly drawn) [US20250313563, Compound 929475]
29 | < 100 nM | 100 to 1000 nM | CC[C@]1(c2cccc(C(F)(F)F)c2)C2=C(N=NC2)NC2=C1C(=O)N(Cc1ccccc1)[C@@H]2C [US20250313563, Compound 930330]
30 | < 100 nM | 100 to 1000 nM | CC[C@]1(c2cccc(C(F)(F)F)c2)C2=C(N=NC2)NC2=C1C(=O)N(Cc1ccccc1)[C@H]2C [US20250313563, Compound 930331]
31 | 1000 to 5000 nM | > 5000 nM | CC[C@@]1(c2cccc(C(F)(F)F)c2)C2=C(N=NC2)NC2=C1C(=O)N(Cc1ccccc1)[C@@H]2C [US20250313563, Compound 930332]
32 | > 5000 nM | > 5000 nM | CC[C@@]1(c2cccc(C(F)(F)F)c2)C2=C(N=NC2)NC2=C1C(=O)N(Cc1ccccc1)[C@H]2C [US20250313563, Compound 930333]
33 | < 100 nM | 100 to 1000 nM | CCC1(c2cccc(O)c2)C2=C(N=NC2)NC2=C1C(=O)CC(C)(C)C2 (stereo not drawn) [US20250313563, Compound 930334]
34 | 1000 to 5000 nM | > 5000 nM | CC1(C)CC(=O)C2=C(C1)NC1N=NC=C1[C@@]21CCCc2ccccc21 (stereo partly drawn) [US20250313563, Compound 930565]
35 | < 100 nM | 100 to 1000 nM | CC1(C)CC(=O)C2=C(C1)NC1N=NC=C1[C@]21CCCc2ccccc21 (stereo partly drawn) [US20250313563, Compound 930566]
36 | 100 to 1000 nM | 1000 to 5000 nM | CCC1(c2cccc(-c3ccnc(C(C)C)c3)c2)C2=CN=NC2NC2=C1C(=O)CC(C)(C)C2 (stereo not drawn) [US20250313563, Compound 930569]
37 | < 100 nM | < 100 nM | CCC1(c2cccc(-c3ccnc4c3CCCC4)c2)C2=CN=NC2NC2=C1C(=O)CC(C)(C)C2 (stereo not drawn) [US20250313563, Compound 932625]
38 | 100 to 1000 nM | 100 to 1000 nM | CCC1(c2cccc(-c3ccnc(OC(C)C)c3)c2)C2=CN=NC2NC2=C1C(=O)CC(C)(C)C2 (stereo not drawn) [US20250313563, Compound 932626]
39 | < 100 nM | < 100 nM | CCC1(c2cccc(-c3ccncc3OC)c2)C2=CN=NC2NC2=C1C(=O)CC(C)(C)C2 (stereo not drawn) [US20250313563, Compound 932627]
